Laboratory results published in PubChem BioAssay AID256 (DTP/NCI, 2004).
“And” between values parts separate entries of the source, which are not always exact repeats. Equal values may be shown once. Toxic doses and inconclusive results are not listed. Rule for the calls: active = survival T/C of 150% or more; inactive = T/C below 125% in these data.

System: CD2F1 mice, L1210 leukemia ip, survival T/C
Experiment: NCI In Vivo Anticancer Drug Screen. Data for tumor model L1210 Leukemia (intraperitoneal) in CD2F1 (CDF1) mice
Settings: higher = longer survival
Outline: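 In this screen, transplantable tumors were grown in mice given either the compound or its vehicle. Results were expressed as the treated measurement relative to the control measurement.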

[1] = endpoint: mean survival time, dose: 100.0 mg/kg/injection, schedule: Q04DX003 (ip), vehicle: saline sonified
[2] = endpoint: mean survival time, dose: 200.0 mg/kg/injection, schedule: Q04DX003 (ip), vehicle: saline sonified
[3] = endpoint: mean survival time, dose: 400.0 mg/kg/injection, schedule: Q04DX003 (ip), vehicle: saline sonified
[4] = endpoint: mean survival time, dose: 75.0 mg/kg/injection, schedule: Q01DX001 (ip), vehicle: saline
[5] = endpoint: mean survival time, dose: 150.0 mg/kg/injection, schedule: Q01DX001 (ip), vehicle: saline
[6] = endpoint: mean survival time, dose: 100.0 mg/kg/injection, schedule: Q01DX009 (ip), vehicle: saline with Tween-80
[7] = endpoint: mean survival time, dose: 200.0 mg/kg/injection, schedule: Q01DX009 (ip), vehicle: saline with Tween-80
[8] = endpoint: mean survival time, dose: 400.0 mg/kg/injection, schedule: Q01DX009 (ip), vehicle: saline with Tween-80
[9] = endpoint: mean survival time, dose: 100.0 mg/kg/injection, schedule: Q04DX003 (ip), vehicle: saline with Tween-80
[10] = endpoint: mean survival time, dose: 200.0 mg/kg/injection, schedule: Q04DX003 (ip), vehicle: saline with Tween-80
[11] = endpoint: mean survival time, dose: 400.0 mg/kg/injection, schedule: Q04DX003 (ip), vehicle: saline with Tween-80
[12] = endpoint: mean survival time, dose: 25.0 mg/kg/injection, schedule: Q01DX009 (ip), vehicle: saline with Tween-80
[13] = endpoint: mean survival time, dose: 50.0 mg/kg/injection, schedule: Q01DX009 (ip), vehicle: saline with Tween-80
[14] = endpoint: mean survival time, dose: 50.0 mg/kg/injection, schedule: Q04DX002 (ip), vehicle: saline with Tween-80
[15] = endpoint: mean survival time, dose: 100.0 mg/kg/injection, schedule: Q01DX001 (ip), vehicle: saline with Tween-80
[16] = endpoint: mean survival time, dose: 100.0 mg/kg/injection, schedule: Q04DX002 (ip), vehicle: saline with Tween-80
[17] = endpoint: mean survival time, dose: 200.0 mg/kg/injection, schedule: Q01DX001 (ip), vehicle: saline with Tween-80
[18] = endpoint: mean survival time, dose: 400.0 mg/kg/injection, schedule: Q01DX001 (ip), vehicle: saline with Tween-80

Measured: T/C

O=S(=O)(c1cccc(N=C=S)c1)c1cccc(N=C=S)c1
inactive: endpoint: median survival time, dose: 6.25 mg/kg/injection, schedule: Q01DX009 (ip), vehicle: Klucel (hydroxypropylcellulose) (HPC) 101 % of control | endpoint: median survival time, dose: 12.5 mg/kg/injection, schedule: Q01DX009 (ip), vehicle: Klucel (hydroxypropylcellulose) (HPC) 109 % of control | endpoint: median survival time, dose: 25.0 mg/kg/injection, schedule: Q01DX009 (ip), vehicle: Klucel (hydroxypropylcellulose) (HPC) 118 % of control

CC(=O)/C=C/c1ccc([N+](=O)[O-])cc1
inactive: [1] 102 % of control | [2] 102 % of control | [3] 95 % of control

C=CCC(c1ccccc1)(c1ccccc1)c1ccccc1
inactive: [4] 93 % of control | [5] 95 % of control | endpoint: mean survival time, dose: 300.0 mg/kg/injection, schedule: Q01DX001 (ip), vehicle: saline 97 % of control

O=C(Nc1ccc(F)cc1)Nc1ccc(Cl)cc1
inactive: [6] 97 % of control | [7] 100 % of control | [8] 103 % of control

Cc1ccc(NC(=O)Oc2ccc(Br)cc2Br)c([N+](=O)[O-])c1
inactive: endpoint: mean survival time, dose: 50.0 mg/kg/injection, schedule: Q04DX003 (ip), vehicle: saline with Tween-80 106 % of control | [9] 104 % of control | [10] 96 % of control | [11] 100 % of control | endpoint: median survival time, dose: 100.0 mg/kg/injection, schedule: Q01DX009 (ip), vehicle: saline with Tween-80 98 % of control | endpoint: median survival time, dose: 200.0 mg/kg/injection, schedule: Q01DX009 (ip), vehicle: saline with Tween-80 100 % of control | endpoint: median survival time, dose: 400.0 mg/kg/injection, schedule: Q01DX009 (ip), vehicle: saline with Tween-80 105 % of control | endpoint: median survival time, dose: 800.0 mg/kg/injection, schedule: Q01DX009 (ip), vehicle: saline with Tween-80 101 % of control

Cc1ccc2c(c1)N(CCCN(C)C)c1ccccc1S2
inactive: endpoint: mean survival time, dose: 22.0 mg/kg/injection, schedule: Q04DX003 (ip), vehicle: saline 105 % of control | endpoint: mean survival time, dose: 33.0 mg/kg/injection, schedule: Q04DX003 (ip), vehicle: saline 97 % of control | endpoint: mean survival time, dose: 50.0 mg/kg/injection, schedule: Q04DX003 (ip), vehicle: saline 105 % of control | endpoint: mean survival time, dose: 75.0 mg/kg/injection, schedule: Q04DX003 (ip), vehicle: saline 103 % of control

CCNNC(=O)[C@@H]1[C@H](c2cc(OC)c(OC)c(OC)c2)c2cc3c(cc2[C@H](O)[C@H]1CO)OCO3
inactive: endpoint: mean survival time, dose: 7.8 mg/kg/injection, schedule: Q01DX Z (ip), vehicle: saline 100 % of control | endpoint: mean survival time, dose: 15.6 mg/kg/injection, schedule: Q01DX Z (ip), vehicle: saline 96 % of control | endpoint: mean survival time, dose: 31.3 mg/kg/injection, schedule: Q01DX Z (ip), vehicle: saline 103 % of control | endpoint: mean survival time, dose: 62.5 mg/kg/injection, schedule: Q01DX Z (ip), vehicle: saline 111 % of control

CCOC(=O)CCC1(C(=O)OC)C(=O)CCCCCCC1C(=O)OC (stereo not given)
inactive: [6] 102 % of control | [7] 101 % of control | [8] 93 % of control

CN(C)C(=N)N(C)C
inactive: [12] 98 % of control | [13] 95 % of control | [6] 87 % of control | [1] 101 % of control

C[S+](C)(=O)/C=C(\[O-])Nc1ccc(Cl)c(Cl)c1
inactive: [9] 103 % of control | [10] 90 % of control | [11] 91 % of control

COc1ccc2c(c1O)C1CCCCC13CCN(C)C3C2 (stereo not given)
inactive: endpoint: mean survival time, dose: 25.0 mg/kg/injection, schedule: Q04DX002 (ip), vehicle: saline with Tween-80 96 % of control | [14] 96 % of control | [15] 110 % of control | [16] 93 % of control and 97 % of control | [17] 98 % of control | [18] 100 % of control

O=c1c2cccc3c2-c2c4c(cccc14)c(O)c1cccc(c3=O)c21
inactive: [1] 94 % of control | [2] 95 % of control | [3] 92 % of control

Nc1nc(N)c(N=Nc2ccccc2S(=O)(=O)O)c(N)n1
inactive: [6] 94 % of control | [9] 95 % of control | [7] 108 % of control | [10] 100 % of control | [8] 100 % of control | [11] 93 % of control

NC(=O)c1ccc[n+](Cc2c(Cl)cccc2Cl)c1
inactive: [9] 105 % of control | endpoint: median survival time, dose: 0.75 mg/kg/injection, schedule: Q01DX009 (ip), vehicle: saline 102 % of control | endpoint: median survival time, dose: 1.5 mg/kg/injection, schedule: Q01DX009 (ip), vehicle: saline 101 % of control | endpoint: median survival time, dose: 3.0 mg/kg/injection, schedule: Q01DX009 (ip), vehicle: saline 109 % of control | endpoint: median survival time, dose: 6.0 mg/kg/injection, schedule: Q01DX009 (ip), vehicle: saline 102 % of control | endpoint: median survival time, dose: 12.0 mg/kg/injection, schedule: Q01DX009 (ip), vehicle: saline 102 % of control

C1=[N+](c2ccccc2)CCN1c1ccccc1
inactive: [4] 95 % of control | [5] 98 % of control

O=C1C=CC(=NS(=O)(=O)c2ccccc2)C=C1
inactive: endpoint: mean survival time, dose: 25.0 mg/kg/injection, schedule: Q01DX001 (ip), vehicle: other 93 % of control | endpoint: mean survival time, dose: 50.0 mg/kg/injection, schedule: Q01DX001 (ip), vehicle: other 95 % of control | endpoint: mean survival time, dose: 100.0 mg/kg/injection, schedule: Q01DX001 (ip), vehicle: other 104 % of control

CC1(C)N=C(N)N=C(N)N1c1ccc(OCCCCNC(=O)c2ccc(S(=O)(=O)F)cc2)c(Cl)c1
inactive: endpoint: mean survival time, dose: 12.5 mg/kg/injection, schedule: Q01DX009 (ip), vehicle: saline with Tween-80 110 % of control | [12] 110 % of control | [13] 119 % of control and 109 % of control | [14] 104 % of control | [16] 104 % of control | endpoint: mean survival time, dose: 200.0 mg/kg/injection, schedule: Q04DX002 (ip), vehicle: saline with Tween-80 104 % of control

O=[N+]([O-])C1=C(c2ccccc2)SC=C(c2ccccc2)S1
inactive: [15] 87 % of control | [17] 97 % of control | [18] 105 % of control

O=C(c1cccnc1)n1cc2c(n1)C1=C(CCCC1)CC2
inactive: endpoint: mean survival time, dose: 50.0 mg/kg/injection, schedule: Q01DX009 (ip), vehicle: Klucel (hydroxypropylcellulose) (HPC) 90 % of control | endpoint: mean survival time, dose: 100.0 mg/kg/injection, schedule: Q01DX009 (ip), vehicle: Klucel (hydroxypropylcellulose) (HPC) 105 % of control | endpoint: mean survival time, dose: 200.0 mg/kg/injection, schedule: Q01DX009 (ip), vehicle: Klucel (hydroxypropylcellulose) (HPC) 102 % of control

O=C1c2cccc(O)c2C(=O)c2c(O)cc(CO)cc21
inactive: endpoint: mean survival time, dose: 1.25 mg/kg/injection, schedule: Q01DX009 (ip), vehicle: other 96 % of control | endpoint: mean survival time, dose: 2.5 mg/kg/injection, schedule: Q01DX009 (ip), vehicle: other 102 % of control | endpoint: mean survival time, dose: 5.0 mg/kg/injection, schedule: Q01DX009 (ip), vehicle: other 96 % of control | endpoint: mean survival time, dose: 10.0 mg/kg/injection, schedule: Q01DX009 (ip), vehicle: other 102 % of control

CCOC(=O)C12CCCCC1=CC1(CC2)SCCS1 (stereo not given)
inactive: endpoint: mean survival time, dose: 100.0 mg/kg/injection, schedule: Q04DX003 (ip), vehicle: acetone 93 % of control | endpoint: mean survival time, dose: 200.0 mg/kg/injection, schedule: Q04DX003 (ip), vehicle: acetone 91 % of control | endpoint: mean survival time, dose: 400.0 mg/kg/injection, schedule: Q04DX003 (ip), vehicle: acetone 86 % of control

Cc1ccc(NC(=O)Nc2ccccc2Cl)c(C)c1
inactive: [9] 102 % of control | [10] 90 % of control | [11] 93 % of control

CC(C)(C)c1ccc(S(=O)(=O)CC(=O)O)cc1
inactive: endpoint: mean survival time, dose: 75.0 mg/kg/injection, schedule: Q01DX001 (ip), vehicle: other 104 % of control | [9] 104 % of control | endpoint: mean survival time, dose: 150.0 mg/kg/injection, schedule: Q01DX001 (ip), vehicle: other 100 % of control | [10] 102 % of control | endpoint: mean survival time, dose: 300.0 mg/kg/injection, schedule: Q01DX001 (ip), vehicle: other 98 % of control | [11] 104 % of control

O=C1O/C(=C\c2ccccc2)c2c(-c3ccccc3)ccc(-c3ccccc3)c21
inactive: [15] 95 % of control | [17] 95 % of control | [18] 95 % of control
